PubChem BioAssay AID248 (DTP/NCI, 2004)
Several values for one entry are separate records, joined by “and”; a condition that tells them apart may be missing. Equal entries are not always repeated. Toxic doses and inconclusive results are not listed. No stated cut-off is given here; in the data, active means T/C of 150% or more; inactive means T/C below 125%.

Tested on: L1210 leukemia ip in BDF1 mice, survival T/C
Assay: NCI In Vivo Anticancer Drug Screen. Data for tumor model L1210 Leukemia (intraperitoneal) in B6D2F1 (BDF1) mice
Settings: higher = longer survival
Outline: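 Survival endpoint. Drug-treated group vs vehicle group, expressed as T divided by C. Tumor passaged by transplantation.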

[1] = endpoint: mean survival time, dose: 100.0 mg/kg/injection, schedule: Q04DX002 (ip), vehicle: Klucel (hydroxypropylcellulose) (HPC)
[2] = endpoint: mean survival time, dose: 75.0 mg/kg/injection, schedule: Q01DX001 (ip), vehicle: saline
[3] = endpoint: mean survival time, dose: 150.0 mg/kg/injection, schedule: Q01DX001 (ip), vehicle: saline
[4] = endpoint: mean survival time, dose: 25.0 mg/kg/injection, schedule: Q04DX003 (ip), vehicle: saline with Tween-80
[5] = endpoint: mean survival time, dose: 50.0 mg/kg/injection, schedule: Q04DX003 (ip), vehicle: saline with Tween-80
[6] = endpoint: mean survival time, dose: 100.0 mg/kg/injection, schedule: Q01DX009 (ip), vehicle: saline with Tween-80
[7] = endpoint: mean survival time, dose: 100.0 mg/kg/injection, schedule: Q04DX003 (ip), vehicle: saline with Tween-80
[8] = endpoint: mean survival time, dose: 100.0 mg/kg/injection, schedule: Q01DX001 (ip), vehicle: saline
[9] = endpoint: mean survival time, dose: 100.0 mg/kg/injection, schedule: Q04DX003 (ip), vehicle: saline
[10] = endpoint: mean survival time, dose: 200.0 mg/kg/injection, schedule: Q04DX003 (ip), vehicle: saline with Tween-80
[11] = endpoint: mean survival time, dose: 400.0 mg/kg/injection, schedule: Q04DX003 (ip), vehicle: saline with Tween-80

Measured: T/C

Nc1cc2nc3ccccc3sc-2cc1=O
inactive: endpoint: median survival time, dose: 50.0 mg/kg/injection, schedule: Q01DX001 (ip), vehicle: Klucel (hydroxypropylcellulose) (HPC) 100 % of control | endpoint: median survival time, dose: 50.0 mg/kg/injection, schedule: Q01DX001 (oral), vehicle: Klucel (hydroxypropylcellulose) (HPC) 105 % of control | endpoint: median survival time, dose: 50.0 mg/kg/injection, schedule: Q01DX009 (ip), vehicle: Klucel (hydroxypropylcellulose) (HPC) 102 % of control | endpoint: median survival time, dose: 50.0 mg/kg/injection, schedule: Q01DX009 (oral), vehicle: Klucel (hydroxypropylcellulose) (HPC) 114 % of control | endpoint: median survival time, dose: 50.0 mg/kg/injection, schedule: Q04DX003 (ip), vehicle: Klucel (hydroxypropylcellulose) (HPC) 101 % of control | endpoint: median survival time, dose: 100.0 mg/kg/injection, schedule: Q01DX001 (ip), vehicle: Klucel (hydroxypropylcellulose) (HPC) 93 % of control | endpoint: median survival time, dose: 100.0 mg/kg/injection, schedule: Q01DX001 (oral), vehicle: Klucel (hydroxypropylcellulose) (HPC) 105 % of control | endpoint: median survival time, dose: 100.0 mg/kg/injection, schedule: Q01DX009 (ip), vehicle: Klucel (hydroxypropylcellulose) (HPC) 97 % of control | endpoint: median survival time, dose: 100.0 mg/kg/injection, schedule: Q01DX009 (oral), vehicle: Klucel (hydroxypropylcellulose) (HPC) 114 % of control | endpoint: median survival time, dose: 100.0 mg/kg/injection, schedule: Q04DX003 (ip), vehicle: Klucel (hydroxypropylcellulose) (HPC) 94 % of control | endpoint: median survival time, dose: 200.0 mg/kg/injection, schedule: Q01DX001 (ip), vehicle: Klucel (hydroxypropylcellulose) (HPC) 96 % of control | endpoint: median survival time, dose: 200.0 mg/kg/injection, schedule: Q01DX001 (oral), vehicle: Klucel (hydroxypropylcellulose) (HPC) 106 % of control | endpoint: median survival time, dose: 200.0 mg/kg/injection, schedule: Q01DX009 (ip), vehicle: Klucel (hydroxypropylcellulose) (HPC) 102 % of control | endpoint: median survival time, dose: 200.0 mg/kg/injection, schedule: Q01DX009 (oral), vehicle: Klucel (hydroxypropylcellulose) (HPC) 113 % of control | endpoint: median survival time, dose: 200.0 mg/kg/injection, schedule: Q04DX003 (ip), vehicle: Klucel (hydroxypropylcellulose) (HPC) 101 % of control | endpoint: median survival time, dose: 400.0 mg/kg/injection, schedule: Q01DX001 (ip), vehicle: Klucel (hydroxypropylcellulose) (HPC) 96 % of control | endpoint: median survival time, dose: 400.0 mg/kg/injection, schedule: Q01DX001 (oral), vehicle: Klucel (hydroxypropylcellulose) (HPC) 110 % of control | endpoint: median survival time, dose: 400.0 mg/kg/injection, schedule: Q01DX009 (ip), vehicle: Klucel (hydroxypropylcellulose) (HPC) 97 % of control | endpoint: median survival time, dose: 400.0 mg/kg/injection, schedule: Q01DX009 (oral), vehicle: Klucel (hydroxypropylcellulose) (HPC) 112 % of control | endpoint: median survival time, dose: 400.0 mg/kg/injection, schedule: Q04DX003 (ip), vehicle: Klucel (hydroxypropylcellulose) (HPC) 94 % of control

O=C(/C=C/c1ccc([N+](=O)[O-])s1)c1cccc([N+](=O)[O-])c1
inactive: [1] 91 % of control | endpoint: mean survival time, dose: 200.0 mg/kg/injection, schedule: Q04DX002 (ip), vehicle: Klucel (hydroxypropylcellulose) (HPC) 100 % of control | endpoint: mean survival time, dose: 400.0 mg/kg/injection, schedule: Q04DX002 (ip), vehicle: Klucel (hydroxypropylcellulose) (HPC) 100 % of control

CC1(C)CN1Sc1ccc([N+](=O)[O-])cc1 (stereo unspecified)
inactive: endpoint: mean survival time, dose: 25.0 mg/kg/injection, schedule: Q04DX002 (ip), vehicle: Klucel (hydroxypropylcellulose) (HPC) 107 % of control | endpoint: mean survival time, dose: 50.0 mg/kg/injection, schedule: Q04DX002 (ip), vehicle: Klucel (hydroxypropylcellulose) (HPC) 103 % of control | [1] 96 % of control and 107 % of control

CCCCC1(C(C)C)C(=O)NC(=O)NC1=O
inactive: [2] 102 % of control | [3] 96 % of control

CN(C)/C=N\c1c(C#N)c(CC#N)nn1-c1ccccc1
inactive: endpoint: mean survival time, dose: 25.0 mg/kg/injection, schedule: Q01DX009 (ip), vehicle: saline with Tween-80 98 % of control | [4] 103 % of control | endpoint: mean survival time, dose: 50.0 mg/kg/injection, schedule: Q01DX009 (ip), vehicle: saline with Tween-80 100 % of control | [5] 93 % of control | [6] 88 % of control | [7] 98 % of control and 99 % of control

CCCCCCCCCCN1CCN2C(=O)N(CC)CCC2C1 (stereo unspecified)
inactive: [4] 94 % of control | [5] 105 % of control | endpoint: mean survival time, dose: 100.0 mg/kg/injection, schedule: Q01DX001 (ip), vehicle: saline with Tween-80 96 % of control | [7] 94 % of control

O=[N+]([O-])c1ccccc1N=Nc1c(O)[nH]c2c(Cl)cccc12
inactive: [8] 97 % of control | endpoint: mean survival time, dose: 200.0 mg/kg/injection, schedule: Q01DX001 (ip), vehicle: saline 100 % of control | endpoint: mean survival time, dose: 400.0 mg/kg/injection, schedule: Q01DX001 (ip), vehicle: saline 97 % of control

Cc1ccc([Si](C)(C)C)cc1
inactive: endpoint: mean survival time, dose: 25.6 mg/kg/injection, schedule: Q04DX002 (ip), vehicle: saline with Tween-80 90 % of control | endpoint: mean survival time, dose: 64.0 mg/kg/injection, schedule: Q04DX002 (ip), vehicle: saline with Tween-80 104 % of control | endpoint: mean survival time, dose: 160.0 mg/kg/injection, schedule: Q04DX002 (ip), vehicle: saline with Tween-80 90 % of control | endpoint: mean survival time, dose: 400.0 mg/kg/injection, schedule: Q04DX002 (ip), vehicle: saline with Tween-80 90 % of control

CC(=O)OCC(OC(C)=O)C(OC(C)=O)C(OC(C)=O)C(O)CO (stereo unspecified)
inactive: [9] 96 % of control | endpoint: mean survival time, dose: 200.0 mg/kg/injection, schedule: Q04DX003 (ip), vehicle: saline 96 % of control | endpoint: mean survival time, dose: 400.0 mg/kg/injection, schedule: Q04DX003 (ip), vehicle: saline 96 % of control

N#CC(C#N)N=Nc1ccc(S(=O)(=O)Nc2ccccn2)cc1
inactive: [2] 95 % of control | [3] 90 % of control

NC(=NC1CCC(C2CCC(N)CC2)CC1)C(N)=NC1CCC(C2CCC(N)CC2)CC1 (stereo unspecified)
inactive: [6] 98 % of control | [7] 100 % of control | endpoint: mean survival time, dose: 200.0 mg/kg/injection, schedule: Q01DX009 (ip), vehicle: saline with Tween-80 98 % of control | [10] 91 % of control | endpoint: mean survival time, dose: 400.0 mg/kg/injection, schedule: Q01DX009 (ip), vehicle: saline with Tween-80 98 % of control | [11] 95 % of control

CCC(CC)N=C(N)N
inactive: [9] 93 % of control

CC1(C)CC2(OC2c2cccc(Cl)c2)C(=O)c2ccccc21 (stereo unspecified)
inactive: [7] 89 % of control | [10] 94 % of control | [11] 89 % of control

CC(=O)c1cc(C(C)=O)c2cc(C)cc(O)c2c1O
inactive: [8] 103 % of control

CC(=O)OCC1OC(Oc2ncc(C)c(=O)[nH]2)C(Nc2ccc([N+](=O)[O-])cc2[N+](=O)[O-])C(OC(C)=O)C1OC(C)=O (stereo unspecified)
inactive: endpoint: mean survival time, dose: 50.0 mg/kg/injection, schedule: Q01DX001 (ip), vehicle: carboxymethylcellulose (CMC) 100 % of control | endpoint: mean survival time, dose: 100.0 mg/kg/injection, schedule: Q01DX001 (ip), vehicle: carboxymethylcellulose (CMC) 97 % of control | endpoint: mean survival time, dose: 200.0 mg/kg/injection, schedule: Q01DX001 (ip), vehicle: carboxymethylcellulose (CMC) 103 % of control | endpoint: mean survival time, dose: 400.0 mg/kg/injection, schedule: Q01DX001 (ip), vehicle: carboxymethylcellulose (CMC) 92 % of control

O=C(CC(=O)c1ccc(Cl)cc1)NC(=O)c1ccccc1
inactive: endpoint: mean survival time, dose: 100.0 mg/kg/injection, schedule: Q01DX001 (ip), vehicle: other 96 % of control | endpoint: mean survival time, dose: 200.0 mg/kg/injection, schedule: Q01DX001 (ip), vehicle: other 91 % of control | endpoint: mean survival time, dose: 400.0 mg/kg/injection, schedule: Q01DX001 (ip), vehicle: other 89 % of control

CC(C)(C)N(O)C(=O)NC1CCCCC1
inactive: endpoint: mean survival time, dose: 100.0 mg/kg/injection, schedule: Q01DX001 (ip), vehicle: Klucel (hydroxypropylcellulose) (HPC) 92 % of control | endpoint: mean survival time, dose: 200.0 mg/kg/injection, schedule: Q01DX001 (ip), vehicle: Klucel (hydroxypropylcellulose) (HPC) 91 % of control | endpoint: mean survival time, dose: 400.0 mg/kg/injection, schedule: Q01DX001 (ip), vehicle: Klucel (hydroxypropylcellulose) (HPC) 103 % of control

O=S(=O)(F)c1cc(Cl)ccc1C[P+](c1ccccc1)(c1ccccc1)c1ccccc1
inactive: endpoint: mean survival time, dose: 10.0 mg/kg/injection, schedule: Q04DX003 (ip), vehicle: saline 97 % of control | endpoint: mean survival time, dose: 20.0 mg/kg/injection, schedule: Q04DX003 (ip), vehicle: saline 89 % of control

CCOC(=O)C(=CNc1ccccc1)C(=O)OCC
inactive: endpoint: mean survival time, dose: 100.0 mg/kg/injection, schedule: Q01DX009 (ip), vehicle: Klucel (hydroxypropylcellulose) (HPC) 97 % of control | endpoint: mean survival time, dose: 200.0 mg/kg/injection, schedule: Q01DX009 (ip), vehicle: Klucel (hydroxypropylcellulose) (HPC) 90 % of control | endpoint: mean survival time, dose: 400.0 mg/kg/injection, schedule: Q01DX009 (ip), vehicle: Klucel (hydroxypropylcellulose) (HPC) 97 % of control
